Measured values as given in patent publication US11466044B2 (WAYNE STATE UNIVERSITY, priority 2017, dated 2022).
≈ marks a conversion by molar mass, not a printed value.

Tests used:
N. gonorrhoeae = assay: Disk diffusion, N. gonorrhoeae; assay type: cell-based; conditions: 25 nmol
[1] = tested on: Klebsiella pneumonia AG215; assay: MIC by broth microdilution, Klebsiella pneumonia; assay type: cell-based; conditions: strain AG215 Klebsiella pneumonia
P aeruginosa = assay: MIC by broth microdilution, P aeruginosa isolates; assay type: cell-based, Pseudomonas aeruginosa; conditions: for MIC AG031 P. aer. APH(3′)-II: clinical isolate AG031, APH(3′)-II; for MIC AG032 P. aer. APH(3′)-II: clinical isolate AG032, APH(3′)-II
[2] = tested on: Enterobacter cloacae AG290; assay: MIC by broth microdilution, Enterobacter cloacae; assay type: cell-based; conditions: strain AG290 Enterobacter cloacae
[3] = tested on: Acinetobacter baumannii pittii AG225; assay: MIC by broth microdilution, Acinetobacter baumannii; assay type: cell-based; conditions: strain AG225 Acinetobacter baumannii pittii
E coli wild type = assay: MIC by broth microdilution, wild type E coli; assay type: cell-based; conditions: for MIC pH430 WT: E. coli strain pH430, WT; for MIC AG001 E. coli WT: clinical isolate AG001, WT; for MIC AG055 E. coli WT: clinical isolate AG055, WT
[4] = tested on: E coli carrying specific resistance determinants; assay: MIC by broth microdilution, E coli carrying specific resistance determinants; assay type: cell-based; conditions: for MIC AG036 ANT(4′,4′′): E. coli strain AG036, ANT(4′,4′′); for MIC AG037 APH(3′)-III: E. coli strain AG037, APH(3′)-III; for MIC AG103 armA: E. coli strain AG103, armA; for MIC pH421 APH(3)-I: E. coli strain pH421, APH(3)-I; for MIC pH422 APH(3′)-II: E. coli strain pH422, APH(3′)-II; for MIC pH423 APH(3′)-VI: E. coli strain pH423, APH(3′)-VI; for MIC pH432 ANT(4′): E. coli strain pH432, ANT(4′); for MIC AG003 E. coli AAC(3)-II: clinical isolate AG003, AAC(3)-II
[5] = tested on: rabbit reticulocyte ribosomes; assay: in-vitro translation assay, rabbit reticulocyte ribosomes; assay type: biochemical; conditions: mammalian cytosolic ribosomes (rabbit)
[6] = tested on: wild type bacterial ribosomes; assay: in-vitro translation assay, bacterial ribosomes; assay type: biochemical; conditions: Mycobacterium smegmatis ribosomes; read-out: IC50 Bacterial
Description: (§1) The antiribosomal activity of these compounds was investigated with cell-free translation assays using both wild type bacterial ribosomes and hybrid ribosomes carrying eukaryotic decoding A sites enabling the prediction of selectivity.

[7] = tested on: mitochondrial ribosome (human chimeric); assay type: biochemical; conditions: ribosomes with a human mitochondrial decoding site; read-out: IC50 Mitoch.
Description: as §1

[8] = tested on: cytosolic ribosome (human chimeric); assay type: biochemical; conditions: for IC50: ribosomes with a human cytosolic decoding site, read-out: IC50 Cytosolic
Description: as §1

MRSA = assay: MIC by broth microdilution, MRSA isolates; assay type: cell-based; conditions: for MIC AG038 MRSA: clinical isolate AG038; for MIC AG039 MRSA AAC(6′)-I ANT(4′)-I: clinical isolate AG039, AAC(6′)-I ANT(4′)-I; for MIC AG042 MRSA AAC(6′)-I ANT(4′)-I APH(2′): clinical isolate AG042, AAC(6′)-I ANT(4′)-I APH(2′); for MIC AG044 MRSA: clinical isolate AG044
[9] = tested on: A1555G mutant mitochondrial ribosome (human chimeric); assay: in-vitro translation assay, human chimeric ribosomes, A1555G mutant mitochondrial decoding site; assay type: biochemical; conditions: human mitochondrial decoding site with A1555G point mutation; read-out: IC50 Mitoch. A1555G
Description: as §1

| Structure (SMILES) | IC50 [5] | IC50 [6] | MIC AG031 P. aer. APH(3′)-II (P aeruginosa) | MIC AG032 P. aer. APH(3′)-II (P aeruginosa) | MIC pH430 WT (E coli wild type) | MIC AG001 E. coli WT (E coli wild type) | MIC AG055 E. coli WT (E coli wild type) | IC50 [7] | IC50 [8] | MIC AG038 MRSA (MRSA) | MIC AG039 MRSA AAC(6′)-I ANT(4′)-I (MRSA) | MIC AG042 MRSA AAC(6′)-I ANT(4′)-I APH(2′) (MRSA) | MIC AG044 MRSA (MRSA) | IC50 [9] | MIC AG036 ANT(4′,4′′) [4] | MIC AG037 APH(3′)-III [4] | MIC AG103 armA [4] | MIC pH421 APH(3)-I [4] | MIC pH422 APH(3′)-II [4] | MIC pH423 APH(3′)-VI [4] | other results |
| --- | --- | --- | --- | --- | --- | --- | --- | --- | --- | --- | --- | --- | --- | --- | --- | --- | --- | --- | --- | --- | --- |
| CCC[C@@H]1C(CO)O[C@H](O[C@@H]2C(N)C[C@@H](NC(=O)[C@@H](O)CCN)C(O)[C@H]2O[C@@H]2O[C@H](CO)[C@H](O[C@H]3C[C@@H](CN)[C@@H](O)C(O)C3N)C2O)[C@@H](N)C1O (stereo partly shown) [Compound 187] |  |  |  |  |  |  |  |  |  |  |  |  |  |  |  |  |  |  |  |  | Disk diffusion 25 nmol N. gonorrhoeae (N. gonorrhoeae): 11 mm; MIC AG215 K. pneumon [1]: 0.5 µg/mL (≈ 0.675 µM); MIC AG220 P. aerugin (P aeruginosa; strain AG220 Pseudomonas aeruginosa ATCC27853): 2 to 4 µg/mL; MIC AG290 E. cloacae [2]: 0.5 to 1 µg/mL; MIC AG225 A. baumannii [3]: 2 µg/mL (≈ 2.7 µM); MIC AG160 E. coli WT (E coli wild type; clinical isolate AG160 WT, Table 2 (Example 4)): 2 µg/mL (≈ 2.7 µM); MIC pH430 E. coli WT (E coli wild type; engineered strain pH430 WT, Table 2 (Example 4)): 0.5-1 μg/ml; MIC AG212 E. coli (E coli wild type; strain AG212 E. coli (ATCC25922)): 2 µg/mL (≈ 2.7 µM); MIC AG163 E. coli APH(3′)-I ([4]; clinical isolate AG163 APH(3′)-I, Table 2 (Example 4)): 2 µg/mL (≈ 2.7 µM); MIC AG166 E. coli APH(3′)-II ([4]; clinical isolate AG166 APH(3′)-II, Table 2 (Example 4)): 2 µg/mL (≈ 2.7 µM); MIC AG037 E. coli APH(3′)-III ([4]; engineered strain AG037 APH(3′)-III, Table 2 (Example 4)): 8 µg/mL (≈ 10.8 µM); MIC pH421 E. coli APH(3′)-I ([4]; engineered strain pH421 APH(3′)-I, Table 2 (Example 4)): 4-8 μg/ml; MIC pH422 E. coli APH(3′)-II ([4]; engineered strain pH422 APH(3′)-II, Table 2 (Example 4)): 0.5-1 μg/ml; MIC pH423 E. coli APH(3′)-VI ([4]; engineered strain pH423 APH(3′)-VI, Table 2 (Example 4)): 1 μg/ml |
| CC(C)(O)[C@H]1O[C@H](O[C@H]2[C@H](O[C@@H]3O[C@H](CO)[C@@H](O[C@H]4O[C@@H](CN)[C@@H](O)[C@H](O)[C@H]4N)[C@H]3O)[C@@H](O)[C@H](N)C[C@@H]2N)[C@H](N)[C@@H](O)[C@@H]1O [DC159] | 15 µM | 0.04 µM | >128 µg/mL | >128 µg/mL | 1-2 μg/ml | 8 µg/mL (≈ 12.4 µM) | 8 µg/mL (≈ 12.4 µM) | 211 µM | 30 µM | 8 to 16 µg/mL | >128 µg/mL | >128 µg/mL | 4 to 8 µg/mL | 87 µM | 16 to 32 µg/mL | >64 µg/mL | 4 to 8 µg/mL | >64 μg/ml | >64 μg/ml | 8 μg/ml | MIC pH432 ANT(4′) [4]: 2 μg/ml; MIC AG003 E. coli AAC(3)-II [4]: 8 µg/mL (≈ 12.4 µM) |
| CC(O)C1OC(OC2C(N)CC(N)C(O)C2OC2OC(CO)C(OC3OC(CN)C(O)C(O)C3N)C2O)C(N)C(O)C1O (stereo not shown) [DC156] | 5.4 µM | 0.02 µM | >32 µg/mL | >32 µg/mL | 1 μg/ml | 4 to 8 µg/mL | 4 µg/mL (≈ 6.35 µM) | 185 µM | 2.6 µM | 4 to 8 µg/mL | >128 µg/mL | >128 µg/mL | 2 to 4 µg/mL | 8.4 µM | 32 to 64 µg/mL | >32 µg/mL | 1 µg/mL (≈ 1.59 µM) | >32 μg/ml | >32 μg/ml | >32 μg/ml | Target specificity bacterial vs. Cytosolic ([8]; relative target specificity, bacterial vs. human cytosolic): low; MIC pH414 AAC(6′)-I ([4]; E. coli strain pH414, AAC(6′)-I): 1 μg/ml; MIC pH415 AAC(6′)-II ([4]; E. coli strain pH415, AAC(6′)-II): 1 μg/ml; MIC pH432 ANT(4′) [4]: 1 μg/ml; MIC AG003 E. coli AAC(3)-II [4]: 4 µg/mL (≈ 6.35 µM) |
